Test results from patent US6472348B1, “Pyridone derivatives and herbicides” (Kumiai Chemical Industry Co., Ltd., priority 1996, dated 2002).

Tests used:
barnyardgrass (Ec) [1] = experiment: Test Example 1: herbicidal effects by paddy field soil treatment; type: in vivo; conditions: 100 g of the active ingredient per 10 ares, 21st day after the application, index 0-5 of Table 47;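 note: grade of growth control; 5 = at least 90%; 4 = 70 to 90%; 3 = 50 to 70%; 2 = 30 to 50%; 1 = 10 to 30%; 0 = under 10%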
Procedure, shortened: (§1)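 Greenhouse pot test in flooded paddy soil, dosed at 100 g a.i. per 10 ares; effect scored on day 21.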

monochoria (Mo) = experiment: as above; type: in vivo; conditions: 100 g of the active ingredient per 10 ares, 21st day after the application, index 0-5 of Table 47;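 note: grade of growth control; 5 = at least 90%; 4 = 70 to 90%; 3 = 50 to 70%; 2 = 30 to 50%; 1 = 10 to 30%; 0 = under 10%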
Procedure, shortened: as §1

bulrush (Sc) = experiment: as above; type: in vivo; conditions: 100 g of the active ingredient per 10 ares, 21st day after the application, index 0-5 of Table 47;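 note: grade of growth control; 5 = at least 90%; 4 = 70 to 90%; 3 = 50 to 70%; 2 = 30 to 50%; 1 = 10 to 30%; 0 = under 10%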
Procedure, shortened: as §1

wheat (Tr) = experiment: Test Example 9: crop plant selectivity by upland field foliage treatment (wheat), phytotoxicity; conditions: dose 1.6 g ai/10a, 14th day after treatment;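 note: grade of crop injury; 5 = at least 90%; 4 = 70 to 90%; 3 = 50 to 70%; 2 = 30 to 50%; 1 = 10 to 30%; 0 = under 10%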
Procedure, shortened: (§2)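 Seeds of wheat, pale smartweed, slender amaranth, common lambsquarters and China jute are sown in sand and grown 2 weeks under glass. Foliage is then treated, culture resumes in the greenhouse, and damage is graded on the 14th day.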

corn (Ze) = experiment: Test Example 11: crop plant selectivity by upland field foliage treatment (corn), phytotoxicity; conditions: upland field foliage treatment, dose 1.6 g ai/10a, 14th day after treatment
Protocol: (§3) (Test on Crop Plant Selectivity by Upland Field Foliage Treatment)
(§4) In a plastic pot (surface area: 600 cm^2) filled with sand, corn (Ze), pale smartweed (Po), slender amaranth (Am), common lambsquarters (Ch) and China jute (Ab) were sown and cultured in a green house for 2 weeks. […] The plants were then cultured in a green house, and the evaluation of the herbicidal effects and phytotoxicity was conducted on the 14th day after the treatment in accordance with the standards as identified in Table 47.

pale smartweed (Po) [2] = experiment: Test Example 11: crop plant selectivity by upland field foliage treatment (corn), herbicidal effects; type: in vivo; set-up: scale not given here; conditions: upland field foliage treatment (corn test), dose 1.6 g ai/10a, 14th day after treatment
Protocol: as §3, §4

China jute (Ab) [3] = experiment: as above; type: in vivo; set-up: scale not given here; conditions: upland field foliage treatment (corn test), dose 1.6 g ai/10a, 14th day after treatment
Protocol: as §3, §4

[4] = tested on: common lambsquarters (Ch); experiment: as above; type: in vivo; set-up: scale not given here; conditions: upland field foliage treatment (corn test), dose 1.6 g ai/10a, 14th day after treatment
Protocol: as §3, §4

slender amaranth (Am) [5] = experiment: as above; type: in vivo; set-up: scale not given here; conditions: upland field foliage treatment (corn test), dose 1.6 g ai/10a, 14th day after treatment
Protocol: as §3, §4

pale smartweed (Po) [6] = experiment: Test Example 9: crop plant selectivity by upland field foliage treatment (wheat), herbicidal effects; type: in vivo; set-up: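 grade of growth control; 5 = at least 90%; 4 = 70 to 90%; 3 = 50 to 70%; 2 = 30 to 50%; 1 = 10 to 30%; 0 = under 10%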; conditions: dose 1.6 g ai/10a, 14th day after treatment
Procedure, shortened: as §2

China jute (Ab) [7] = experiment: as above; type: in vivo; set-up: scale not given here; conditions: dose 1.6 g ai/10a, 14th day after treatment
Procedure, shortened: as §2

[8] = tested on: common lambsquarters (Ch); experiment: as above; type: in vivo; set-up: scale not given here; conditions: dose 1.6 g ai/10a, 14th day after treatment
Procedure, shortened: as §2

slender amaranth (Am) [9] = experiment: as above; type: in vivo; set-up: scale not given here; conditions: dose 1.6 g ai/10a, 14th day after treatment
Procedure, shortened: as §2

pale smartweed (Po) [10] = experiment: Test Example 3: herbicidal effects by upland field foliage treatment; type: in vivo; set-up: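 grade of growth control; 5 = at least 90%; 4 = 70 to 90%; 3 = 50 to 70%; 2 = 30 to 50%; 1 = 10 to 30%; 0 = under 10%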; conditions: 100 g active ingredient per 10 ares, evaluated 14th day after treatment
Procedure, shortened: (§5)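 Foliage-applied treatment on weeds pre-grown for 2 weeks in a greenhouse. Pots held sand (surface area 120 cm^2); seeds were sown and covered with soil. Evaluation: graded herbicidal effect 14 days post-application.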

barnyardgrass (Ec) [11] = experiment: as above; type: in vivo; set-up: scale not given here; conditions: 100 g active ingredient per 10 ares, evaluated 14th day after treatment
Procedure, shortened: as §5

rice flatsedge (Ci) [12] = experiment: as above; type: in vivo; set-up: scale not given here; conditions: 100 g active ingredient per 10 ares, evaluated 14th day after treatment
Procedure, shortened: as §5

[13] = tested on: common lambsquarters (Ch); experiment: as above; type: in vivo; set-up: scale not given here; conditions: 100 g active ingredient per 10 ares, evaluated 14th day after treatment
Procedure, shortened: as §5

slender amaranth (Am) [14] = experiment: as above; type: in vivo; set-up: scale not given here; conditions: 100 g active ingredient per 10 ares, evaluated 14th day after treatment
Procedure, shortened: as §5

Diaitaria ciliaris (Di) = experiment: as above; type: in vivo; set-up: scale not given here; conditions: 100 g active ingredient per 10 ares, evaluated 14th day after treatment
Procedure, shortened: as §5

pale smartweed (Po) [15] = experiment: Test Example 2: herbicidal effects by upland field soil treatment; type: in vivo; conditions: 100 g of the active ingredient per 10 ares, evaluated on the 21st day after application
From the text: (§6) (Test on Herbicidal Effects by Upland Field Soil Treatment)

barnyardgrass (Ec) [16] = experiment: as above; type: in vivo; conditions: 100 g of the active ingredient per 10 ares, evaluated on the 21st day after application
From the text: as §6

rice flatsedge (Ci) [17] = experiment: as above; type: in vivo; conditions: 100 g of the active ingredient per 10 ares, evaluated on the 21st day after application
From the text: as §6

[18] = tested on: common lambsquarters (Ch); experiment: as above; type: in vivo; conditions: 100 g of the active ingredient per 10 ares, evaluated on the 21st day after application
From the text: as §6

Digitaria ciliaris (Di) = experiment: as above; type: in vivo; conditions: 100 g of the active ingredient per 10 ares, evaluated on the 21st day after application
From the text: as §6

slender amaranth (Am) [19] = experiment: as above; type: in vivo; conditions: 100 g of the active ingredient per 10 ares, evaluated on the 21st day after application
From the text: as §6

## CCOC(=O)CN1C(=O)COc2cc(F)c(-c3ccc(C(F)(F)F)n(C)c3=O)cc21 [Compound 2-18]
Barnyardgrass (Ec) [1]
  Herbicidal effects Ec: 5
Monochoria (Mo)
  Herbicidal effects Mo: 5
Bulrush (Sc)
  Herbicidal effects Sc: 5
Wheat (Tr)
  Phytotoxicity Tr: 2
Corn (Ze)
  Phytotoxicity Ze: 2
Pale smartweed (Po) [2]
  Herbicidal effects Po: 5
China jute (Ab) [3]
  Herbicidal effects Ab: 5
[4]
  Herbicidal effects Ch: 5
Slender amaranth (Am) [5]
  Herbicidal effects Am: 5
Pale smartweed (Po) [6]
  Herbicidal effects Po: 5
China jute (Ab) [7]
  Herbicidal effects Ab: 5
[8]
  Herbicidal effects Ch: 5
Slender amaranth (Am) [9]
  Herbicidal effects Am: 5

## Cn1c(C(F)(F)F)ccc(-c2cc3c(cc2F)OCC(=O)N3CC#N)c1=O [Compound 2-17]
Barnyardgrass (Ec) [1]
  Herbicidal effects Ec: 5
Monochoria (Mo)
  Herbicidal effects Mo: 5
Bulrush (Sc)
  Herbicidal effects Sc: 5
Corn (Ze)
  Phytotoxicity Ze: 2
Pale smartweed (Po) [10]
  Herbicidal effects Po: 5
Barnyardgrass (Ec) [11]
  Herbicidal effects Ec: 5
Rice flatsedge (Ci) [12]
  Herbicidal effects Ci: 5
[13]
  Herbicidal effects Ch: 5
Slender amaranth (Am) [14]
  Herbicidal effects Am: 5
Diaitaria ciliaris (Di)
  Herbicidal effects Di: 5
Pale smartweed (Po) [2]
  Herbicidal effects Po: 5
China jute (Ab) [3]
  Herbicidal effects Ab: 5
[4]
  Herbicidal effects Ch: 5
Slender amaranth (Am) [5]
  Herbicidal effects Am: 5
Pale smartweed (Po) [15]
  Herbicidal effects Po: 5
Barnyardgrass (Ec) [16]
  Herbicidal effects Ec: 5
Rice flatsedge (Ci) [17]
  Herbicidal effects Ci: 5
[18]
  Herbicidal effects Ch: 5
Digitaria ciliaris (Di)
  Herbicidal effects Di: 5
Slender amaranth (Am) [19]
  Herbicidal effects Am: 5
